Consider 15 molecules from BindingDB's records for doi:10.3109/14756366.2012.719503 (Kinki University, 2013).

This test deals with Alpha-glucosidase MAL12 (Saccharomyces cerevisiae (strain ATCC 204508 / S288c), UniProt P53341). Nature of the test: α-glucosidase Inhibitory Activity Assay. As to conditions: pH 7; 25 °C. The protocol: α-glucosidase (25 μL, 0.2 U/mL), 25 μL of various concentrations of samples, and 175 μL of 50 mM sodium phosphate buffer (pH 7.0) were mixed at room temperaturefor 10 min. The reaction was started by the addition of 25 μL of 2.5 mM p-nitrophenyl-α-d-glucopyranoside. […] Control sample contained 25 μL DMSO in place of test samples.
Chain of Alpha-glucosidase MAL12 (P53341 whole entry): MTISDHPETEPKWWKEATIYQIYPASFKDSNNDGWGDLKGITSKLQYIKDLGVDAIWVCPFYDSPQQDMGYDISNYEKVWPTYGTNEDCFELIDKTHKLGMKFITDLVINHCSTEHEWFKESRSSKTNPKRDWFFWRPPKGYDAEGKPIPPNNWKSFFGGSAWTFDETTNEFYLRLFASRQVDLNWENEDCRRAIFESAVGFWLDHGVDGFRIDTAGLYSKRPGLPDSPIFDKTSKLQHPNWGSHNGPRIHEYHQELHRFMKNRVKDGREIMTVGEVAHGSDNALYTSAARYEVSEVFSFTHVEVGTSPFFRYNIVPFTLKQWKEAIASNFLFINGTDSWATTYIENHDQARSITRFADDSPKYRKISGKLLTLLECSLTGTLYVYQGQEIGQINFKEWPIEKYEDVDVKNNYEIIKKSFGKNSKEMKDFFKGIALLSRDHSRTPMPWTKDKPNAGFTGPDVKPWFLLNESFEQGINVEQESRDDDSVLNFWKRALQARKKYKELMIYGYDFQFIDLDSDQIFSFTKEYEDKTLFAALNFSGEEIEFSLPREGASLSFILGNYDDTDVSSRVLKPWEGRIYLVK

By IC50 is commonly meant the concentration at which inhibition is half-maximal. A lower IC50 goes with greater potency in that assay.

For the molecule `COc1ccc(C(=O)O)cc1OC` [3,4-dimethoxybenzoic acid], the IC50 was greater than 300 µM. With `O=C(O)c1ccc(O)cc1` [4-Hydroxybenzoate, III] the figure was greater than 300 µM; with `COc1cc(C(=O)O)ccc1O` [4-hydroxy-3-methoxybenzoic acid], greater than 300 µM; with `COc1ccc(C(=O)OC[C@H]2OC3c4c(cc(O)c(OC)c4O)C(=O)OC3[C@@H](O)[C@@H]2O)cc1OC` (stereo not given in full) [11-O-(3',4'-dimethoxybenzoyl)-bergenin (6)], 24.6 µM.

In turn, `COc1cc(OC)cc(C(=O)OC[C@H]2OC3c4c(cc(O)c(OC)c4O)C(=O)OC3[C@@H](O)[C@@H]2O)c1` (stereo not given in full) [11-O-(3',5'-dimethoxybenzoyl)-bergenin (8)] returned an IC50 greater than 300 µM. For `COc1c(O)cc2c(c1O)C1O[C@H](COC(=O)c3ccccc3)[C@@H](O)[C@H](O)C1OC2=O` (stereo not given in full) [11-O-benzoylbergenin (2)], the midpoint of inhibition, the IC50, lay at 118 µM. With `COc1c(O)cc2c(c1O)C1O[C@H](COC(=O)c3ccc(O)cc3)[C@@H](O)[C@H](O)C1OC2=O` (stereo not given in full) [11-O-p-hydroxybenzoylbergenin (3)] the figure was 143 µM; with `COc1ccc(C(=O)OC[C@H]2OC3c4c(cc(O)c(OC)c4O)C(=O)OC3[C@@H](O)[C@@H]2O)cc1` (stereo not given in full) [11-O-p-methoxybenzoylbergenin (4)], 144 µM; with `COc1c(O)cc2c(c1O)C1O[C@H](COC(=O)c3ccc(O)c(O)c3)[C@@H](O)[C@H](O)C1OC2=O` (stereo not given in full) [11-O-protocatechuoylbergenin (5)], 290 µM. Under `COc1cc(C(=O)OC[C@H]2OC3c4c(cc(O)c(OC)c4O)C(=O)OC3[C@@H](O)[C@@H]2O)cc(OC)c1O` (stereo not given in full) [11-O-syringylbergenin (9)] stands greater than 300 µM; under `COc1cc(C(=O)OC[C@H]2OC3c4c(cc(O)c(OC)c4O)C(=O)OC3[C@@H](O)[C@@H]2O)ccc1O` (stereo not given in full) [11-O-vanilloylbergenin (7)], 187 µM. With `COc1ccc(C(=O)O)cc1` [Anisic acid] the figure was greater than 300 µM. As to `COc1c(O)cc2c(c1O)C1O[C@H](CO)[C@@H](O)[C@H](O)C1OC2=O` (stereo not given in full) [Bergenin (1)], the IC50 was greater than 300 µM. With `O=C(O)c1ccc(O)c(O)c1` [Protocatechuic acid (M1)] the figure was greater than 300 µM; with `O=C(O)c1ccccc1` [SAMPL4, O1], greater than 300 µM.
